Results taken from patent publication US12599608B2, “Methods for treating cardiac valve disease” (The Regents of the University of California, priority 2018, dated 2026).
“Also recorded” adds a separate entry of the source.

How the values were obtained:
Type in all cases: cell-based, human
N1^+/− iPSC-derived ECs = assay: Network-based small molecule screen by targeted RNA-seq of 119 genes (KNN and hierarchical clustering); details: initial screen, complete agglomeration method
Text: TALEN-engineered isogenic human iPSCs that were either WT (wild-type) or N1^+/− were derived and characterized as detailed in Theodoris et al., Cell. 2015; 160:1072-1086. Isogenic iPSCs (induced pluripotent stem cells) were differentiated into ECs as previously described (Theodoris et al., 2015; White et al., Stem Cells. 2012; 31:92-103). On day 13 of the differentiation process, ECs were greater than 90% double-positive for CD31 (BD #558068) and CD144 (#FAB9381P) by FACS (fluorescence-activated cell sorting) analysis (FIGS. 9G-H). Small molecule experiments (described below) were conducted at day 15 of differentiation.
(§1) Starting on day 15 of differentiation, WT ECs were exposed to 10 μM DMSO (dimethyl sulfoxide) (n=80) while isogenic N1^+/− ECs were exposed to either 10 μM DMSO (n=80) or one of the small molecules from the LOPAC (1280 molecules) (Sigma LO1280) or Sheng Ding (315 molecules) chemical libraries. DMSO or small molecules were renewed with EC media (ScienCell #1001) changes on alternating days until the cells were ultimately collected for analysis on day 21. ECs were imaged using the IN Cell Analyzer on day 21 to evaluate morphology and cell death; wells with extensive cell death were eliminated from final analyses. For validation experiments, promising small molecules identified from the initial screen were applied to N1^+/− ECs in duplicate or triplicate along with controls of DMSO-exposed WT and N1^+/− ECs (n=4 each) using the same process as the initial screen described above.
(§2) ECs were lysed and RNA was isolated using the Qiagen RNeasy 96-well purification kit. RNA was diluted so that it was between the 10 pg-1 ng range accepted by the Cellular Research Precise targeted RNA-seq (RNA sequencing) system. Targeted RNA-seq libraries were prepared as per the Cellular Research Precise protocol (Rev 03092015), which includes both molecule and sample barcoding. The selected 119 target genes (see Table 1) included 3 low-expressing housekeeping genes for normalization (CHMP2A, C1orf43, REEP5) and either predicted central regulatory nodes or peripheral genes positioned within varied regions of the N1 network to permit identification of small molecules that affected central nodes as well as those that may have a synergistic effect in combination due to regulating different aspects of the network. Briefly, RNA was added to the Precise Encoding Plate containing indexed dT primer, dNTPs, and Spike-in mRNA controls and incubated at 65° C. for 3 minutes followed by cooling on ice. A master-mix of RT enzyme, RNase inhibitor, and buffer was then added to the samples, and they were incubated at 42° C. for 30 minutes followed by 80° C. for 5 minutes. Each plate of samples was combined into a single 2 ml tube and purified with AMPureXP beads. N1 PCR master-mix was added and samples were incubated for 94° C. for 2 minutes, followed by 15 cycles of 94° C. for 30 seconds, 55° C. for 3 minutes, and 68° C. for 1 minute, followed by 68° C. for 7 minutes. Samples were purified with AMPureXP beads and N2 PCR master-mix was added. Samples were incubated with the same thermal cycler program as above for 12 cycles. These final libraries were then purified with AMPureXP beads and analyzed for quality and concentration by Agilent Bioanalyzer and Illumina Library Quantification Kit (KAPA Biosystems), respectively. Libraries were normalized to equivalent concentration and pooled for paired-end 100 bp sequencing on an Illumina HiSeq 2500 instrument.
Sequencing data was analyzed using Cellular Research Precise Analysis Pipeline on the SevenBridges platform, which included analyzing sequencing quality with FASTQC, trimming adapters and filtering reads, demultiplexing based on sample barcodes, aligning reads with Bowtie 2, and determining the number of unique molecular indices per gene. Network inference was based on mutual information of gene expression from all DMSO- and small molecule-exposed samples as described in Margolin et al., BMC Bioinformatics. […]

N1^+/− ECs [1] = assay: Validation trials of screen candidates by targeted RNA-seq with the trained KNN algorithm; details: duplicate or triplicate; one or more replicates classified as WT
Method: as §1, §2
Sequencing data was analyzed using Cellular Research Precise Analysis Pipeline on the SevenBridges platform, which included analyzing sequencing quality with FASTQC, trimming adapters and filtering reads, demultiplexing based on sample barcodes, aligning reads with Bowtie 2, and determining the number of unique molecular indices per gene. Network inference was based on mutual information of gene expression from all DMSO- and small molecule-exposed samples as described in Margolin et al., BMC Bioinformatics. 2006; 7 Suppl 1:S7. Network diagram was generated using NetworkX (Hagberg et al., Exploring Network Structure, Dynamics, and Function using NetworkX. SciPy. 2008) based on network connections inferred from the small molecule screen data as described above with colors based on whole transcriptome RNA-seq gene expression of isogenic N1^+/− compared to WT ECs.
Promising small molecules were identified using either K-nearest neighbor (KNN) or hierarchical clustering algorithms. […]

N1^+/− ECs [2] = assay: Whole transcriptome RNA-seq of N1^+/− ECs treated with network-correcting molecules; details: for repressive effect on cadherin-11 mRNA expression: FIG. 9A; for restoration of the N1-dependent network as a whole: FIGS. 2E, 3A
Method: ECs were lysed and RNA was isolated using the Qiagen RNeasy Micro purification kit. RNA-seq libraries were constructed using the Clontech SMRTer Stranded RNA-seq Library Prep Kit for Illumina per kit protocol. Libraries were analyzed by Agilent Bioanalyzer, normalized to equivalent concentration, pooled, gel purified, and sequenced 75 bp paired-end on an Illumina NextSeq instrument with 10% PhiX.
Sequencing quality was assessed with FASTQC (located on the web by placing “www.” in front of “bioinformatics.babraham.ac.uk/projects/fastqc/”). Reads were aligned to the hg19 (Homo sapiens assembly February 2009) transcriptome and genome using the Spliced Transcripts Alignment to a Reference (STAR) Aligner (Dobin et al., Bioinformatics. 2012; 29:15-21) and differential expression was analyzed using Cuffdiff (Trapnell et al., Nat Biotechnol. 2012; 31:46-53). HOPACH was used for clustering with the correlation metric (van der Laan and Pollard; located on the web by placing “www.” in front of “bioconductor.org/packages/devel/bioc/manuals/hopach/man/hopach.pdf”. GO analyses were completed using GO-Elite and ToppGene (Chen et al., Nucleic Acids Research. 2009; 37:W305-W311; Zambon et al., Bioinformatics. 2012; 28:2209-2210). Network diagrams were generated using NetworkX (Hagberg et al., SciPy. 2008) based on network connections inferred from mRNA-seq gene expression of isogenic N1^+/− compared to WT ECs with colors based on whole transcriptome RNA-seq gene expression of DMSO- vs small molecule-treated WT and N1^+/− ECs.

CCN1/C(=C/C(C)=O)Sc2ccc(OC)cc21 [TG003, (Z)-1-(3-ethyl-5-methoxy-2,3-dihydrobenzothiazol-2-ylidene)propan-2-one]
hierarchical clustering of transcriptional profile of treated N1-haploinsufficient ECs with WT ECs (N1^+/− iPSC-derived ECs): cluster with WT ECs
KNN classification of treated N1^+/− ECs in validation trials (N1^+/− ECs [1]): classified as WT
repression of genes aberrantly activated in N1-haploinsufficient ECs (N1^+/− ECs [2]; FIG. 2A): broadly effective at repressing these genes, albeit to a lesser degree
repressive effect on cadherin-11 mRNA expression (N1^+/− ECs [2]): strongest repressive effect
restoration of the N1-dependent network as a whole (N1^+/− ECs [2]): strong restorative effect

COc1cc(/C=C(\C#N)C(=O)Nc2nnc(C(F)(F)F)s2)ccc1OCc1ccc(C(F)(F)F)cc1C(F)(F)F [XCT790, 2E-3-(4-{[2,4-bis(trifluoromethyl)benzyl]oxy}-3-methoxyphenyl)-2-cyano-N-[5-(trifluoromethyl)-1,3,4-thiadiazol-2-yl]acrylamide]
hierarchical clustering of transcriptional profile of treated N1-haploinsufficient ECs with WT ECs (N1^+/− iPSC-derived ECs): cluster with WT ECs
KNN classification of treated N1^+/− ECs in validation trials (N1^+/− ECs [1]): classified as WT
repression of genes aberrantly activated in N1-haploinsufficient ECs (N1^+/− ECs [2]; FIG. 2A): most effective at repressing genes aberrantly activated in N1-haploinsufficient ECs
restoration of transcription of genes repressed in N1-haploinsufficient ECs (N1^+/− ECs [2]; FIG. 2A): effectively restored the transcription of mesoderm and cell cycle checkpoint genes
correlation of gene expression of treated N1^+/− ECs with WT ECs (N1^+/− ECs [2]; FIG. 2B): correlated most strongly; also recorded: correlate most strongly with WT ECs
restorative effect on regulatory nodes SOX7 and TCF4 (N1^+/− ECs [2]; FIG. 2D): strongest restorative effect
repressive effect on cadherin-11 mRNA expression (N1^+/− ECs [2]): strongest repressive effect
restoration of the N1-dependent network as a whole (N1^+/− ECs [2]): most effective at restoring both aberrantly activated and repressed genes; also recorded: corrected the greatest number of genes to the greatest degree; also recorded: strongest restorative effect on central regions of the network
